Reference: patent US20090246134A1, “COMPOSITIONS AND METHODS FOR MODULATING GATED ION CHANNELS” (PainCeptor Pharma Corporation, priority 2007, published 2009)
Where “and” joins values, the source holds several entries; their conditions need not be identical. Identical values can stand only once.

Experiments:
[1] = system: CFA-induced change in weight bearing in Sprague-Dawley rats; experiment: CFA model of chronic inflammatory pain, hindpaw weight bearing; format: in vivo, rat; conditions: 24 h after CFA; 60 min after drug; Compound A 5, 10, 20 mg/kg i.p.; Compound H 10, 30, 60 mg/kg; morphine 3, 6, 10 mg/kg; n=7-8
Method: Rats (body weight 260-300 g) were given a s.c. injection of CFA (50% in saline, 100 μl, Sigma) into the plantar surface of the hindpaw under brief halothane anaesthesia. After 24 h, they were then tested for hindpaw weight bearing responses, as assessed using an Incapacitance Tester (Linton Instrumentation, UK), (Zhu et al., 2005). The instrument incorporates a dual channel scale that separately measures the weight of the animal distributed to each hindpaw. While normal rats distribute their body weight equally between the two hindpaws (50-50), the discrepancy of weight distribution between an injured and non-injured paw is a natural reflection of the discomfort level in the injured paw (nocifensive behavior). The rats were placed in the plastic chamber designed so that each hindpaw rested on a separate transducer pad. […] For each rat, three readings from each paw were taken and then averaged. Side-to-side weight bearing difference was calculated as the average of the absolute value of the difference between two hindpaws from three trials (right paw reading-left paw reading).
Hindpaw weight bearing responses were measured in male Sprague-Dawley rats for 2-3 days prior to being given a hindpaw injection of CFA. Twenty-four hours later baseline responses were measured and rats were then administered Compound A (5, 10 and 20 mg/kg, i.p.), Compound H (10, 30 and 60 mg/kg) and morphine (3, 6 and 10 mg/kg). Weight bearing responses were then measured at 30, 60 and 120 min after drug or vehicle injection (data shown at 60 min.). […] All groups n=7-8.

[2] = system: formalin-induced pain in Sprague-Dawley rats; experiment: Formalin model of acute tonic pain; format: in vivo, rat
Method: Male Sprague-Dawley rats are housed together in groups of three animals under standard conditions with unrestricted access to food and water. All experiments are conducted according to the ethical guidelines for investigations of experimental pain in conscious animals (Zimmerman, 1983)
Assessment of formalin-induced flinching behavior in normal, uninjured rats (body weight 150-180 g) was made with the use of an Automated Nociception Analyser (University of California, San Diego, USA). Briefly, this involved placing a small C-shaped metal band (10 mm wide×27 mm long) on the hindpaw of the rat to be tested. The rats (four rats were included in each testing session) were then placed in a cylindrical plexiglass observation chamber (diameter 30.5 cm and height 15 cm) for 20 min for adaptation purposes prior to being administered drug or vehicle according to the experimental paradigm being followed. After adaptation, individual rats were then gently restrained and formalin (5% in saline, 50 μl, s.c.) was injected into the plantar surface of the hindpaw using a 27 G needle. Rats were then returned to their separate observation chambers, each of which were in turn situated upon an enclosed detection device consisting of two electromagnetic coils designed to produce an electromagnetic field in which movement of the metal band could be detected. The analogue signal was then digitised and a software algorithm (LabView) applied to enable discrimination of flinching behaviour from other paw movements. A sampling interval of 1 min was used and on the basis of the resulting response patterns 5 phases of nociceptive behaviour were identified and scored: first phase (P1; 0-5 min), interphase (Int; 6-15 min), second phase (P2; […]), phase 2A (P2A; 16-40 min) and phase 2B (P2B; 41-60 min).
Nociceptive behavior was also determined manually every 5 min by measuring the amount of time spent in each of four behavioral categories: 0, treatment of the injected hindpaw is indistinguishable from that of the contralateral paw; 1, the injected paw has little or no weight placed on it; 2, the injected paw is elevated and is not in contact with any surface; 3, the injected paw is licked, bitten, or shaken. A weighted nociceptive score, ranging from 0 to 3 was calculated by multiplying the time spent in each category by the category weight, summing these products, and dividing by the total time for each 5 min block of time. (Coderre et al., Pain 1993; 54: 43). On the basis of the resulting response patterns, 2 phases of nociceptive behavior were identified and scored: first phase (P1; 0-5 min), interphase (Int; 6-15 min), second phase (P2; […]), phase 2A (P2A; 16-40 min) and phase 2B (P2B; 41-60 min).
Statistical analysis was performed using Prism™ 4.01 software package (GraphPad, San Diego, Calif., USA). The difference in response levels between treatment groups and control vehicle group was analyzed using an ANOVA followed by Bonferroni's method for post-hoc pair-wise comparisons. A p value<0.05 was considered to be significant
The effect of Compound A on pain induced by intraplantar formalin injection was investigated. Compound A was administered i.p. 30 min. before the formalin. Compound A was able to reduce the total pain score behavior (flinching, licking, biting) in phase 1 and 2 of the formalin test.

[3] = system: native sensory-neuron gated ion channels; experiment: Patch-clamp electrophysiology of sensory neurons in primary culture; format: cell-based, rat; conditions: n=3
Excerpt: This example describes another in vitro assessment of the inhibitory activity of the compounds of the present invention utilizing patch-clamp electrophysiology of sensory neurons in primary culture.
Sensory neurons can be isolated and cultured in vitro from different animal species. The most widely used protocols use sensory neurons isolated from neonatal (Eckert, et al. (1997) J Neurosci Methods 77:183-190) and embryonic (Vasko, et al. (1994) J Neurosci 14:4987-4997) rat. […] Electrophysiology is performed similarly as described above in Example 2. In the voltage-clamp mode, trans-membrane currents are recorded. Compounds A and H at 1 μM inhibit the pH 6.5-induced inward current. In the current-clamp mode, change in the trans-membrane potential are recorded. Under acidic conditions (e.g., pH 6.5) the membrane depolarizes, leading to the firing of action potentials. Compounds A and H at 1 μM inhibit the acid-induced membrane depolarization and reduce the ensuing rate of action potential firing.

[4] = Liver microsomes stability and metabolite identification (LC-MS), dog; format: in vitro ADME
[5] = i.p. 30 min before formalin, n=6-8
[6] = dog microsomes 60 min (samples 23-25)

relationship between dose and plasma exposure ([2]; formalin experiments, i.p.): linear relationship
Total % metabolites ([4]; % peak area relative to parent at T0, 60 min incubation, dog microsomes): 2.74%
Compound A metabolite identification: m/z 342 [4, 6]: weak
Compound A metabolite identification: m/z 356 (parent) [4, 6]: Yes
Compound A metabolite identification: m/z 372 [4, 6]: Yes
Compound A metabolite identification: m/z 412 [4, 6]: no
Calc. Conc. ([4]; dog microsomes, time 0 min): 4.71 µM and 5.14 µM
Calc. Conc. ([4]; dog microsomes, time 60 min): 3.95 µM and 4.05 µM and 4.10 µM
Compound: COc1ccc(F)cc1-c1cc2c(c3c1CCN(C)C3)NC(=O)C2=NO [Compound A, 5-(5-fluoro-2-methoxyphenyl)-6,7,8,9-tetrahydro-3-(hydroxyimino)-8-methyl-1H-pyrrolo[3,2-h]isoquinoline-2(3H)-one]
CFA-induced change in weight bearing compared with vehicle [1]: marked dose-dependent attenuation
ED50 ([2]; Rattus norvegicus, ip, i.p. 30 min before formalin, read-out: ED50, Phase 2 of the total pain score): ~12 mg/kg
effects on phases 1 and 2, specific pain behaviors (licking and biting) only [2, 5]: quite pronounced
total pain score behavior (flinching, licking, biting) in phase 1 and 2 of the formalin test [2, 5]: reduce
acute tonic pain induced by formalin injection in the paw ([2]; rat, in vivo): block
acid-induced membrane depolarization ([3]; current-clamp mode, 1 μM): inhibit
rate of action potential firing ([3]; current-clamp mode, acidic conditions, 1 μM): reduce
activity of native sensory-neuron gated ion channels [3]: effectively modulate
pH 6.5-induced inward current ([3]; voltage-clamp mode, 1 μM): inhibit
